Laboratory results: US20080274104A1, “Targeting a Secreted Pro-Apoptotic Factor for Cancer Therapeutics” (priority 2005, published 2008)
Where “and” joins values, the source holds several entries; their conditions need not be identical. Identical values can stand only once.

How the values were obtained:
[1] = system: NGAL expression in SKBr3 cell line; experiment: NGAL expression in breast cancer cell line; type: cell-based, human
Text: Several breast cancer cell lines were examined for NGAL expression.

C3H/HeJ mice = experiment: C3H/HeJ mouse leukemia model injected with BCR-ABL+ 32D cells; type: in vivo; conditions: individual mouse
Protocol: Therefore, the present inventors wanted to determine whether the affects of anti-sense 24p3 expression in leukemia cells would produce the same effects as in the NOD/scid mouse. In these experiments, 10e6 BCR-ABL+32D cells were injected iv into 8-week old C3H/HeJ mice. Leukemia cells expressed either GFP or anti-sense 24p3 RNA or siRNA for 24p3. The GFP expressing leukemia cells induced a vigorous leukemia involving marrow, spleen, blood and liver (Table 2). Expression of anti-sense 24p3 in leukemia cells reduced the level of invasion in marrow and the spleen but not the liver. Importantly, these mice developed a vigorous ascites tumor growth of GFP+ cells, which was not observed in the GFP vector expressing leukemia cells. […]

suitable targets cells = experiment: Apoptosis induction with purified 24p3/NGAL; type: cell-based; conditions: GST-bacterial method protein
Text: These findings indicate that the Bcr-Abl oncoprotein in addition to its oncogenic effects also induces secretion of an apoptotic factor (24p3/NGAL) that causes suppression of normal hematopoiesis. […] Detailed structural analysis has shown that NGAL is an iron binding protein, and that the ligand for NGAL is a catecholate-type siderophore (Goetz et al., 2002). Whether the siderophore binding function is related to 24p3/NGAL's ability to induce apoptosis is not known. In specific embodiments, the apoptotic activity of 24p3/NGAL may require either post-translational modification in eukaryotic cells or formation of a complex with one or more factors. […] Local suppression of normal hematopoiesis by 24p3/NGAL secreted by leukemia cells would allow the leukemic clone to more readily compete, survive, infiltrate and proliferate in normal marrow and the spleen tissue environment. […] Thus, as little as one pluripotent stem cell that has acquired BCR-ABL expression by forming the Philadelphia chromosome could survive and compete in the normally active marrow environment because of its ability to secrete a cell death factor (and possibly other factors; Eaves et al., 1998; Olofsson and Olsson, 1980; Olofsson and Olsson, 1980; Skold et al., 1999) to which it is resistant. The ensuing cell death in the surrounding marrow cells would facilitate expansion of the leukemic clone in the normal marrow. […]

Cc1ccc(S(=O)(=O)/C=C/C#N)cc1 [BAY11-7082]
NGAL expression [1]: strongly inhibited

siRNA #4: small hairpin RNA against 24p3 driven by H1 promoter, SEQ ID NO:1 (DNA GGCAGCTTTACGATGTACATTCAAGAGATGTACATCGTAAAGCTGCCTTTTTTCCAAT; expressed or natural sequence)
Ascites (C3H/HeJ mice): Yes | Solid tumor (C3H/HeJ mice): Yes | GFP positive cells, Ascites (C3H/HeJ mice; listed as 32Dp210 siRNA): 90% (2×) and 80% and 100% (2×) | GFP positive cells, BM (C3H/HeJ mice; listed as 32Dp210 siRNA): <1% and 5% (3×) and No | GFP positive cells, Liver (C3H/HeJ mice; listed as 32Dp210 siRNA): 20% and 50% and 40% and 10% and 25% | GFP positive cells, PB (C3H/HeJ mice; listed as 32Dp210 siRNA): 50% and <1% and 20% | GFP positive cells, Spleen (C3H/HeJ mice; listed as 32Dp210 siRNA): 5% and 25% and <1% and No and 20% | GFP positive cells, Tumor (C3H/HeJ mice; listed as 32Dp210 siRNA): 40% and 70% | Spleen wt (C3H/HeJ mice; listed as 32Dp210 siRNA): 160 mg and 110 mg and 40 mg and 90 mg and 130 mg

B1: purified 24p3/NGAL: purified 24p3/NGAL lipocalin protein made by GST-bacterial method (protein, UniProt P11672 21-200, looked up)
Neutrophil …: QDSTQNLIPAPSLLTVPLQPDFRSDQFRGRWYVVGLAGNAVQKKTEGSFTMYSTIYELQENNSYNVTSILVRDQDQGCRYWIRTFVPSSRAGQFTLGNMHRYPQVQSYNVQVATTDYNQFAMVFFRKTSENKQYFKITLYGRTKELSPELKERFTRFAKSLGLKDDNIIFSVPTDQCIDN
apoptosis induction (suitable targets cells): unable to induce apoptosis
